Legend:
[1] = system: E. coli and the human cytosolic A-site; test: Selectivity factor, E. coli versus human cytosolic A-site; assay type: binding; conditions: 5.75 × IC50(human)/IC50(E. coli); above 5.75 = selectivity to bacterial A-site
[2] = system: 4 MRSA NEO-resistant strains; test: MIC against the MRSA NEO-resistant strains; assay type: cell-based, Staphylococcus aureus
[3] = system: E. coli H4H; test: MIC and growth inhibition, microdilution; assay type: cell-based, Escherichia coli; conditions: concentration not given
[4] = target: APH(2″)-Ia (Staphylococcus aureus, UniProt P0A0C1); test: AME modification of conjugates, APH; assay type: biochemical
[5] = system: L1-stage C. elegans; test: Toxicity in C. elegans, MTT assay; assay type: in vivo, Caenorhabditis elegans; conditions: lowest concentrations used (3.13 – 1.56 μM), 24 h
[6] = system: rRNA A-site; conditions: read-out: IC50, F-NEO screening test; range over rRNA A-sites; cited from earlier work

Sequence of APH(2″)-Ia (P0A0C1 whole entry): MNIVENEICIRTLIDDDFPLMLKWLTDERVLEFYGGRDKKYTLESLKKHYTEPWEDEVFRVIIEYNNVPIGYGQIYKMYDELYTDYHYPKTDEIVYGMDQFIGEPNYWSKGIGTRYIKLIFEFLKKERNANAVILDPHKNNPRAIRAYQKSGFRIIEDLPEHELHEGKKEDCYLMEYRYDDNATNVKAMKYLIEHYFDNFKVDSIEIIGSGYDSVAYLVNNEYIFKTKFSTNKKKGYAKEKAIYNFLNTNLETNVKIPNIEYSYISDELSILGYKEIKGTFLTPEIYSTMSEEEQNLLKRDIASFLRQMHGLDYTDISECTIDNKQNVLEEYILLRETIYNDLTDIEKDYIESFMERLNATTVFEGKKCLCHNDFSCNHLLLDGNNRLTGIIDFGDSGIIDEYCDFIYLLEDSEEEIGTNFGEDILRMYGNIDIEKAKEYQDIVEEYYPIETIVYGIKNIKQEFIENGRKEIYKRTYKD

| SMILES | Selectivity factor [1] | MIC values times lower than that of NEO [2] | further results |
| --- | --- | --- | --- |
| NC[C@@H]1O[C@H](O[C@H]2[C@@H](O)[C@H](O[C@@H]3[C@@H](O)[C@H](N)C[C@H](N)[C@H]3O[C@H]3O[C@H](CN)[C@@H](O)[C@H](O)[C@H]3N)O[C@@H]2CNC(=O)Cc2ccc3ccc4cccc5ccc2c3c45)[C@H](N)[C@@H](O)[C@@H]1O [Compound 10] | 7.12 |  |  |
| NC[C@@H]1O[C@H](O[C@H]2[C@@H](O)[C@H](O[C@@H]3[C@@H](O)[C@H](N)C[C@H](N)[C@H]3O[C@H]3O[C@H](CN)[C@@H](O)[C@H](O)[C@H]3N)O[C@@H]2CNC(=O)CCc2ccc3ccc4cccc5ccc2c3c45)[C@H](N)[C@@H](O)[C@@H]1O [Compound 11] | 8.29 |  |  |
| NC[C@@H]1O[C@H](O[C@H]2[C@@H](O)[C@H](O[C@@H]3[C@@H](O)[C@H](N)C[C@H](N)[C@H]3O[C@H]3O[C@H](CN)[C@@H](O)[C@H](O)[C@H]3N)O[C@@H]2CNC(=O)CCCc2ccc3ccc4cccc5ccc2c3c45)[C@H](N)[C@@H](O)[C@@H]1O [Compound 12] | 6.76 | 4-16 times |  |
| NC[C@@H]1O[C@H](O[C@H]2[C@@H](O)[C@H](O[C@@H]3[C@@H](O)[C@H](N)C[C@H](N)[C@H]3O[C@H]3O[C@H](CN)[C@@H](O)[C@H](O)[C@H]3N)O[C@@H]2CSCCNC(=O)Cc2ccc3ccc4cccc5ccc2c3c45)[C@H](N)[C@@H](O)[C@@H]1O [Compound 13] | 5.87 | 4-16 times |  |
| NC[C@@H]1O[C@H](O[C@H]2[C@@H](O)[C@H](O[C@@H]3[C@@H](O)[C@H](N)C[C@H](N)[C@H]3O[C@H]3O[C@H](CN)[C@@H](O)[C@H](O)[C@H]3N)O[C@@H]2CSCCNC(=O)CCc2ccc3ccc4cccc5ccc2c3c45)[C@H](N)[C@@H](O)[C@@H]1O [Compound 14] | 6.14 |  |  |
| NC[C@@H]1O[C@H](O[C@H]2[C@@H](O)[C@H](O[C@@H]3[C@@H](O)[C@H](N)C[C@H](N)[C@H]3O[C@H]3O[C@H](CN)[C@@H](O)[C@H](O)[C@H]3N)O[C@@H]2CSCCNC(=O)CCCc2ccc3ccc4cccc5ccc2c3c45)[C@H](N)[C@@H](O)[C@@H]1O [Compound 15] | 6.80 | 4-16 times | reduction in growth / growth inhibition [3]: * A 30% reduction in growth was observed for compounds 15 and 16 with E. coli H4H.; modification by APH(2″)-Ia relative to NEO [4]: increased activity |
| NC[C@@H]1O[C@H](O[C@H]2[C@@H](O)[C@H](O[C@@H]3[C@@H](O)[C@H](N)C[C@H](N)[C@H]3O[C@H]3O[C@H](CN)[C@@H](O)[C@H](O)[C@H]3N)O[C@@H]2CSCCNC(=S)NCCCCCCNC(=O)CCCc2ccc3ccc4cccc5ccc2c3c45)[C@H](N)[C@@H](O)[C@@H]1O [Compound 16] | 5.70 | 4-16 times | reduction in growth / growth inhibition [3]: * A 30% reduction in growth was observed for compounds 15 and 16 with E. coli H4H. |
| NC[C@@H]1O[C@H](O[C@H]2[C@@H](O)[C@H](O[C@@H]3[C@@H](O)[C@H](N)C[C@H](N)[C@H]3O[C@H]3O[C@H](CN)[C@@H](O)[C@H](O)[C@H]3N)O[C@@H]2CO)[C@H](N)[C@@H](O)[C@@H]1O [NEO, Neomycin B] |  |  | toxicity / larvae viability compared with the untreated control [5]: no significant difference; IC50 [6]: 0.068 to 0.114 µM |

— paper PMC6503653 (European journal of medicinal chemistry, 2018)
